Values of other authors, collected in patent US20140287088A1, “Calcium Citrate-Malate as source of calcium to prevent bone diseases and increase bone strength in young animals and birds, especially young poultry, dogs, cats, swine, calves, and horses; and laying hens” (priority 2013, published 2014).

What was measured:
[1] = humans; CCM-fortified food vs food fortified with calcium carbonate
rats = settings: by 12 wk

For calcium citrate-malate [CC-M], the “calcium absorption and retention” value [1] is given as “significantly greater” and the “more trabecular bone than rats fed calcium carbonate” value (rats) is given as 44%.
